Measurements from ChEMBL document CHEMBL3881527, “Multi-functional small molecules as anti-proliferative agents” (2008).
Blank lines part the entries; values can stand above or below the compound they belong to.

Columns and labels:
[1] = Cytotoxicity against human CFPAC cells assessed as growth inhibition by measuring ATP levels after 72 hrs by ATPlite assay; format: functional, cell-based
[2] = biological target: Receptor tyrosine-protein kinase erbB-2 (Homo sapiens, UniProt P04626); assay: Inhibition of N-terminal GST-tagged human HER2 (Lys676 to Val1255 residues) expressed in baculovirus expression system using biotinylated FLT3 at Tyr589 as substrate preincubated for 5 mins followed by substrate addition measured after 30 mins by DELFIA method
[3] = biological target: Proto-oncogene tyrosine-protein kinase Src (Homo sapiens, UniProt P12931); assay: (§1) Inhibition of human N-terminal GST-tagged full length human Src (Met1 to Leu536 residues) expressed in baculovirus expression system assessed as decrease in biotin signal transduction protein phosphorylation at Tyr160 preincubated for 5 mins followed by substrate addition measured after 30 mins by DELFIA method
[4] = biological target: Tyrosine-protein kinase ABL1 (Homo sapiens, UniProt P00519); assay: as §1, with “GST-tagged” for “GST-tagged full length”, “Abl1 (Pro118” for “Src (Met1”, “Ser553” for “Leu536”
[5] = biological target: Vascular endothelial growth factor receptor 2 (Homo sapiens, UniProt P35968); assay: Inhibition of N-terminal GST-His6-thrombin cleavage site-fused human VEGFR2 (Asp805 to Val1356 residues) expressed in baculovirus expression system using biotinylated gastrin precursor at Tyr87 as substrate preincubated for 5 mins followed by substrate addition measured after 30 mins by DELFIA method
[6] = biological target: Platelet-derived growth factor receptor beta (Homo sapiens, UniProt P09619); assay: Inhibition of N-terminal GST-His6-thrombin cleavage site-fused human PDGFRbeta (Arg561 to Leu1106 residues) assessed as decrease in biotinylated FLT3 phosphorylation at Tyr589 preincubated for 5 mins followed by substrate addition measured after 30 mins by DELFIA method
[7] = Chemical stability in diluted solution; format: physicochemical
[8] = biological target: Mast/stem cell growth factor receptor Kit (Homo sapiens, UniProt P10721); assay: Inhibition of human N-terminal GST-tagged human c-Kit (Thr544 to Val976 residues) expressed in baculovirus expression system assessed as decrease in biotinylated KDR phosphorylation at Tyr996 preincubated for 5 mins followed by substrate addition measured after 30 mins by DELFIA method
[9] = Solubility of the compound at pH 2 to 3; format: physicochemical; conditions: buffer
[10] = Drug uptake in iv dosed Sprague-Dawley rat plasma administered in 30% captisol as 5 mins infusion; format: ADME, organism-based; conditions: in vivo
Colon = assay: Cmax in CD1 mouse colon at 20 mg/kg, iv administered in 30% captisol as 2 mins infusion by LC/MS/MS analysis; format: ADME, organism-based; set-up: dose 20 mg/kg, route intravenous; conditions: in vivo
[11] = biological target: Cyclin-dependent kinase 2/cyclin E1 (Homo sapiens, UniProt P24941); assay: Inhibition of C-terminal His6-tagged full length CDK2/N-terminal GST-tagged recombinant full length human cyclin E1 expressed in baculovirus infected SF21 insect cells using histone H1 as substrate after 2 hrs in presence of [gamma-33P]-ATP
CDK6/cyclin D3 = CDK6/cyclin D3 (Homo sapiens, UniProt Q00534); assay: Inhibition of N-terminal His6-tagged full length human CDK6/N-terminal GST-tagged recombinant full length human cyclin D3 expressed in baculovirus infected SF21 insect cells using histone H1 as substrate after 2 hrs in presence of [gamma-33P]-ATP
[12] = biological target: Epidermal growth factor receptor (Homo sapiens, UniProt P00533); assay: Inhibition of N-terminal GST-fused human EGFR (His672 to Ala1210 residues) expressed in baculovirus expression system using biotinylated PTP1B at Tyr66 as substrate preincubated for 5 mins followed by substrate addition measured after 30 mins by DELFIA
[13] = Solubility of the compound at pH 3 to 4; format: physicochemical; conditions: buffer

Chain of Vascular endothelial growth factor receptor 2 (P35968 whole entry, the tested form may be a part): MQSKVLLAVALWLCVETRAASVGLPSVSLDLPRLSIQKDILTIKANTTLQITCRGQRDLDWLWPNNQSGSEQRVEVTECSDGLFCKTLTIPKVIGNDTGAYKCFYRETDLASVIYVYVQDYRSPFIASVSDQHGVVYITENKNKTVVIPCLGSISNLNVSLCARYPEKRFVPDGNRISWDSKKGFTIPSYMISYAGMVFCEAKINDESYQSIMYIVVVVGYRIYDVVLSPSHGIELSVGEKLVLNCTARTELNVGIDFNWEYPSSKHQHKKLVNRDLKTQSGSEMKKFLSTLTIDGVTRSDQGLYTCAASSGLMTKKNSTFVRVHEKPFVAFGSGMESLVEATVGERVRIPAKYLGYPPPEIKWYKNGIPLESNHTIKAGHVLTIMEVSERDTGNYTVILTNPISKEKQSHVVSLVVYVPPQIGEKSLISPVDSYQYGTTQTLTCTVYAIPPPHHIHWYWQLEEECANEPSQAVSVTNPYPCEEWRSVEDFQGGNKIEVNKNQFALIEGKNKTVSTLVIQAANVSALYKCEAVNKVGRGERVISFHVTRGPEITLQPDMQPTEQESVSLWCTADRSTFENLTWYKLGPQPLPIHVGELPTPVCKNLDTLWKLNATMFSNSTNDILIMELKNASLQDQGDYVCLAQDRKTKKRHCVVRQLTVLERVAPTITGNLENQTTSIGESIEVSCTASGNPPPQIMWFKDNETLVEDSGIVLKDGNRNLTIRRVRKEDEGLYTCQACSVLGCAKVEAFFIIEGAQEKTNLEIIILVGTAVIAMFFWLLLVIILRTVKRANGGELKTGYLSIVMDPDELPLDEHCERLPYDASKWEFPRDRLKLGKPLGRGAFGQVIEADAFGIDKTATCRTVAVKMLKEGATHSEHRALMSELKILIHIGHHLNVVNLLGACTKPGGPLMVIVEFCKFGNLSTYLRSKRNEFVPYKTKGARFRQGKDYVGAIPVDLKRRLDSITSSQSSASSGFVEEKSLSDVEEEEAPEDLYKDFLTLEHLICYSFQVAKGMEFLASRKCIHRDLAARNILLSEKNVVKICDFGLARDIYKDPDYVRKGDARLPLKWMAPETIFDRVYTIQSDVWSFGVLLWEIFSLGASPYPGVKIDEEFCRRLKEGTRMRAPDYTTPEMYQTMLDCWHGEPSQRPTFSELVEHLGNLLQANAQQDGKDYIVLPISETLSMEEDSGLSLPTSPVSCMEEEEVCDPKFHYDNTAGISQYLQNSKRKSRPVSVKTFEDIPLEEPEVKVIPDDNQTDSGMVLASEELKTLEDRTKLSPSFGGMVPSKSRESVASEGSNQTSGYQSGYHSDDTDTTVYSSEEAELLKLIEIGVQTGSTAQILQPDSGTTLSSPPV
Chain of Receptor tyrosine-protein kinase erbB-2 (P04626 whole entry): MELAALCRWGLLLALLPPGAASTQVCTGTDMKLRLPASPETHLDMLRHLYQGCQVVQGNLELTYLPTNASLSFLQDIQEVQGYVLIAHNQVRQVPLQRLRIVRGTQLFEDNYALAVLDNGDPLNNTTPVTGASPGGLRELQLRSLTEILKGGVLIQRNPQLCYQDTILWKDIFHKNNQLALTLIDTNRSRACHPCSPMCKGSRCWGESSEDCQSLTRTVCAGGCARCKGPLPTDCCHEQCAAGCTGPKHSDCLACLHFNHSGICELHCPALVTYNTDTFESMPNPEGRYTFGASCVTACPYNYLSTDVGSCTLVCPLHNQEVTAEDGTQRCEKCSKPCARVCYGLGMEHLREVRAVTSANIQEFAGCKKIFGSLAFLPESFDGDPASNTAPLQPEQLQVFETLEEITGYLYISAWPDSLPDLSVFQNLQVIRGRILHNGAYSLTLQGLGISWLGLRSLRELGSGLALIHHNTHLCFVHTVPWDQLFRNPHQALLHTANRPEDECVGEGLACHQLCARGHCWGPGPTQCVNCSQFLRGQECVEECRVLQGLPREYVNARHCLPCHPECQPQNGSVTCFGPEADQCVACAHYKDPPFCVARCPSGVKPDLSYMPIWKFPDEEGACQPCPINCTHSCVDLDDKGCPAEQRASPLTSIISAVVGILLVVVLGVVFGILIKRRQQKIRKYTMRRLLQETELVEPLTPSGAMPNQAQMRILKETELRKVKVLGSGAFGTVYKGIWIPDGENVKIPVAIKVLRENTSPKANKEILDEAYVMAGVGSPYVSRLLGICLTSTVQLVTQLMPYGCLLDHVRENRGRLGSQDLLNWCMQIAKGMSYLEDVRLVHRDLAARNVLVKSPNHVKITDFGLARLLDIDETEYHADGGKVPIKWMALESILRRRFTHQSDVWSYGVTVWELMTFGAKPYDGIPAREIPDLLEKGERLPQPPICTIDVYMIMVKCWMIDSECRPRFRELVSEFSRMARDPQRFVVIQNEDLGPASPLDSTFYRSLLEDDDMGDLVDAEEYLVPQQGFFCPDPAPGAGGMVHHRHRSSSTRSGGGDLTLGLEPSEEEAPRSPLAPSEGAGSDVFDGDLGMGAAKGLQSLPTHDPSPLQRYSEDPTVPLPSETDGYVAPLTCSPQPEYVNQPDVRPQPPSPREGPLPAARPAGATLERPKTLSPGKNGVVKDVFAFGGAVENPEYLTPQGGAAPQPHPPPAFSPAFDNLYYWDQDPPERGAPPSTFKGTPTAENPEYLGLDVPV
Chain of Platelet-derived growth factor receptor beta (P09619 whole entry, the tested form may be a part): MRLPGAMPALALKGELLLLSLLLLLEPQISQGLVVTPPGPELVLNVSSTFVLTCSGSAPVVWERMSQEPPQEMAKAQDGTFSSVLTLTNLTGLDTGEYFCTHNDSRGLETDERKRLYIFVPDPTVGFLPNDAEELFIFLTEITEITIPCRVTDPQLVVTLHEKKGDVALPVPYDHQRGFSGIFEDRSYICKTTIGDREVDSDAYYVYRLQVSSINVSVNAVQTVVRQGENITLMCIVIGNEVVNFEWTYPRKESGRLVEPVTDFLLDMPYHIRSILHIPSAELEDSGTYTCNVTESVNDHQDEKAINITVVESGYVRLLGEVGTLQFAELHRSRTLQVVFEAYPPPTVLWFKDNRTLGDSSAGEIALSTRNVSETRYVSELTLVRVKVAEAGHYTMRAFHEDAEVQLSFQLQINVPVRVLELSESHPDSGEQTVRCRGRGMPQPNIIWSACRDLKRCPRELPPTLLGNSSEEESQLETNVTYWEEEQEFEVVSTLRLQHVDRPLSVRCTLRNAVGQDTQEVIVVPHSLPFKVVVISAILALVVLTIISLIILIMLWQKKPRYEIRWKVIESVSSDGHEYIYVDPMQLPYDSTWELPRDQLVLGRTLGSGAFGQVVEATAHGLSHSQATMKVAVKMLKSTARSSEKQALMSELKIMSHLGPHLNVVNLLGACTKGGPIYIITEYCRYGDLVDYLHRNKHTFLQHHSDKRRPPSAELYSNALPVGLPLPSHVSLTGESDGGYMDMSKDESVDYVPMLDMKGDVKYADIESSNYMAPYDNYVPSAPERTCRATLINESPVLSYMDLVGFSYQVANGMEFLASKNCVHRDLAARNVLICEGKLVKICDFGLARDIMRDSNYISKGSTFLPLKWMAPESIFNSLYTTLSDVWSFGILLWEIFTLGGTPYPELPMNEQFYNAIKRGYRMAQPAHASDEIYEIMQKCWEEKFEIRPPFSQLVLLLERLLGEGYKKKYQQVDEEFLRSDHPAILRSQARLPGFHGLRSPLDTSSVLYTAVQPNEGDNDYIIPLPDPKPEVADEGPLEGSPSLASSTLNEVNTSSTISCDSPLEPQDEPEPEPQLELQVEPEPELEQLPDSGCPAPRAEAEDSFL
Chain of Tyrosine-protein kinase ABL1 (P00519 whole entry, the tested form may be a part): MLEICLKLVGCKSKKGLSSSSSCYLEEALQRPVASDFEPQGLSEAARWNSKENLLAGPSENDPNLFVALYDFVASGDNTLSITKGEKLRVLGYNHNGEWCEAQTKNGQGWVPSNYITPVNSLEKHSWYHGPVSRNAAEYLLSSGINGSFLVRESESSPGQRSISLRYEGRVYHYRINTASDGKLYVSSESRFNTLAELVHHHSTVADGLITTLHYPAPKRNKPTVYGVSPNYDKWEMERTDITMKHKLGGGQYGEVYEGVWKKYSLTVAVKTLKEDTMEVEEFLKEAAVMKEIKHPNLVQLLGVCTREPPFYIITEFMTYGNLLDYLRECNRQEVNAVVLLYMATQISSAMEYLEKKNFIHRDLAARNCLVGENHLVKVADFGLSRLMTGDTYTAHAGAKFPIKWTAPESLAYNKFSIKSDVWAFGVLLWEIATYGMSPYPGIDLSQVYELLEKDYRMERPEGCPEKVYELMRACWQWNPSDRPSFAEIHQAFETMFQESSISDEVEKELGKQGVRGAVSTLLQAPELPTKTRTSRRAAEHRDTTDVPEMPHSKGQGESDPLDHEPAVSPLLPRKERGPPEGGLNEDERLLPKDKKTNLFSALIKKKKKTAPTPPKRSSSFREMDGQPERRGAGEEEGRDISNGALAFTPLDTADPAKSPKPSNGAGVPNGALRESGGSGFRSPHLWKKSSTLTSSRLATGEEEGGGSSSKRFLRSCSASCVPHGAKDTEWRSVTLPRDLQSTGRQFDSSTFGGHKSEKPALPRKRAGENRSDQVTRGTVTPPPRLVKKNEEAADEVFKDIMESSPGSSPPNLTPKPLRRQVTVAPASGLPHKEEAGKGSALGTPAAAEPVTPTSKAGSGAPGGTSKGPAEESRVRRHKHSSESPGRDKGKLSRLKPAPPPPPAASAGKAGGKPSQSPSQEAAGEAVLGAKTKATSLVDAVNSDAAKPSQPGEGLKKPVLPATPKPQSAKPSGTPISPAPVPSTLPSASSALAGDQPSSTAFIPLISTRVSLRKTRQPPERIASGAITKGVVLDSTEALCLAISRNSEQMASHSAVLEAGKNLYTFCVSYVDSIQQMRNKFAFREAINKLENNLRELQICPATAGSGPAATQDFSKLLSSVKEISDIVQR

IC50 [2]: 0.1 to 1 µM
SMILES: COc1cc2ncnc(Nc3ccc(F)c(Cl)c3)c2cc1NC(=O)CCCCCCC(=O)NO
IC50 [1]: 1 to 10 µM

IC50 [3]: ≤ 0.1 µM | IC50 [4]: ≤ 0.1 µM
SMILES: Cc1nc(Nc2ncc(C(=O)Nc3c(C)cccc3Cl)s2)cc(N2CCN(CCCC(=O)NO)CC2)n1

IC50 [5]: ≤ 0.1 µM | IC50 [6]: ≤ 0.1 µM
SMILES: Cc1[nH]c(/C=C2\C(=O)Nc3ccc(F)cc32)c(C)c1C(=O)NCCCCCC(=O)NO

Stability [7]: > 12 h
SMILES: C#Cc1cccc(Nc2ncnc3cc(OC)c(OCCCCCCC(=O)N[O-])cc23)c1.[Na+]

IC50 [5]: 0.1 to 1 µM | IC50 [8]: ≤ 0.1 µM | IC50 [6]: 0.1 to 1 µM
SMILES: O=C(CCCCCCCNC(=O)c1cc(Oc2ccc(NC(=O)Nc3ccc(Cl)c(C(F)(F)F)c3)cc2)ccn1)NO

IC50 [8]: ≤ 0.1 µM | IC50 [3]: ≤ 0.1 µM | IC50 [6]: ≤ 0.1 µM | IC50 [4]: ≤ 0.1 µM
SMILES: Cc1nc(NCCCCCC(=O)NO)cc(Nc2ncc(C(=O)Nc3c(C)cccc3Cl)s2)n1

solubility [9]: 25 mg/mL | Stability [7]: > 12 h | Drug uptake [10]: Dose-dependent effect | Cmax (Colon): 8.5 µM
SMILES: C#Cc1cccc(Nc2ncnc3cc(OC)c(OCCCCCCC(=O)NO)cc23)c1.Cl

IC50 [5]: ≤ 0.1 µM | IC50 [6]: ≤ 0.1 µM
SMILES: Cc1[nH]c(/C=C2\C(=O)Nc3ccc(F)cc32)c(C)c1C(=O)NCCCC(=O)NO

IC50 [3]: ≤ 0.1 µM | IC50 [6]: ≤ 0.1 µM | IC50 [4]: ≤ 0.1 µM
SMILES: Cc1nc(Nc2ncc(C(=O)Nc3c(C)cccc3Cl)s2)cc(N2CCN(CC(=O)NO)CC2)n1

IC50 [11]: ≤ 0.1 µM | IC50 (CDK6/cyclin D3): 0.1 to 1 µM
SMILES: CC(C)(C)c1cnc(CSc2cnc(NC(=O)CCCCCC(=O)NO)s2)o1

IC50 [5]: 0.1 to 1 µM | IC50 [12]: 0.1 to 1 µM | IC50 [2]: 0.1 to 1 µM
SMILES: O=C(CCCCCN1CCN(Cc2ccc(-c3cc4c(NCc5ccccc5)ncnc4[nH]3)cc2)CC1)NO

IC50 [11]: ≤ 0.1 µM
SMILES: CC(C)(C)c1cnc(CSc2cnc(NC(=O)Cc3ccc(OCCCC(=O)NO)cc3)s2)o1

SMILES: C[C@@H](Nc1ncnc2[nH]c(-c3ccc(OCCCCC(=O)NO)cc3)cc12)c1ccccc1
IC50 [5]: 0.1 to 1 µM | IC50 [12]: ≤ 0.1 µM | IC50 [2]: 0.1 to 1 µM

IC50 [5]: 0.1 to 1 µM | IC50 [12]: ≤ 0.1 µM | IC50 [2]: ≤ 0.1 µM
SMILES: C[C@@H](Nc1ncnc2[nH]c(-c3ccc(C(=O)NO)cc3)cc12)c1ccccc1

solubility [13]: 60 mg/mL | Stability [7]: > 12 h
SMILES: C#Cc1cccc(Nc2ncnc3cc(OC)c(OCCCCCCC(=O)NO)cc23)c1.O=C(O)C(O)C(O)C(=O)O

IC50 [5]: 0.1 to 1 µM | IC50 [12]: ≤ 0.1 µM | IC50 [2]: ≤ 0.1 µM
SMILES: C[C@@H](Nc1ncnc2[nH]c(-c3ccc(NCCCCCCC(=O)NO)cc3)cc12)c1ccccc1

IC50 [8]: ≤ 0.1 µM | IC50 [3]: ≤ 0.1 µM | IC50 [6]: ≤ 0.1 µM | IC50 [4]: ≤ 0.1 µM
SMILES: Cc1nc(NCCCCCCC(=O)NO)cc(Nc2ncc(C(=O)Nc3c(C)cccc3Cl)s2)n1

IC50 [11]: ≤ 0.1 µM
SMILES: CC(C)(C)c1cnc(CSc2cnc(NC(=O)CCCCCCC(=O)NO)s2)o1

IC50 [5]: ≤ 0.1 µM | IC50 [6]: 0.1 to 1 µM
SMILES: Cc1[nH]c(/C=C2\C(=O)Nc3ccc(F)cc32)c(C)c1C(=O)NCCCCCCCC(=O)NO

IC50 [11]: ≤ 0.1 µM | IC50 (CDK6/cyclin D3): 0.1 to 1 µM
SMILES: CC(C)(C)c1cnc(CSc2cnc(NC(=O)CCCCC(=O)NO)s2)o1
